From ChEMBL document CHEMBL1649383, “Mode of action of epoxyphomalins A and B and characterization of related metabolites from the marine-derived fungus Paraconiothyrium sp” (J Nat Prod, 2010)

What was measured:
Homo sapiens [1] = species: Homo sapiens; assay: Inhibition of trypsin like activity of human erythrocyte-derived 20S proteasome after 60 mins by fluorescence assay
Homo sapiens [2] = species: Homo sapiens; assay: Inhibition of caspase like activity of human erythrocyte-derived 20S proteasome after 60 mins by fluorescence assay
Homo sapiens [3] = species: Homo sapiens; assay: Inhibition of chymotrypsin like activity of human erythrocyte-derived 20S proteasome after 60 mins by fluorescence assay

| Activity (Homo sapiens [1]) | Activity (Homo sapiens [2]) | Activity (Homo sapiens [3]) | Structure (SMILES) |
| --- | --- | --- | --- |
| Dose-dependent effect | Dose-dependent effect | Dose-dependent effect | CC1=CC[C@H]2[C@](C)(CO)CCC[C@]2(C)[C@H]1C[C@@]12O[C@@H]1C(=O)C(CO)=C[C@H]2O |
| Dose-dependent effect | Dose-dependent effect | Dose-dependent effect | CC1=C[C@@H](O)[C@]2(C[C@H]3C(C)=CC[C@H]4[C@](C)(CO)CCC[C@]34C)O[C@@H]2C1=O |
